Data reported in PubChem BioAssay AID300 (DTP/NCI, 2004).
Several values for one entry are separate records, joined by “and”; a condition that tells them apart may be missing. Equal values may be shown once. Results filed as inconclusive are left out. How the source made its calls: active means survival T/C of 150% or more; inactive means T/C below 125% in these data.

Tested on: Madison 109 lung carcinoma i.m., mice, median survival
Experiment: NCI In Vivo Anticancer Drug Screen. Data for tumor model Madison 109 Lung Carcinoma (intramuscular) in unknown mice
Conditions: endpoint: median survival time, higher = longer survival
Protocol: The antitumor activity of compounds was measured in mice bearing transplantable tumors. Survival or tumor size were measured and the results are expressed as the measurement made in the treated group (T) divided by the measurement made in the vehicle treated control group (C). The tumor model used in this assay is Madison 109 Lung Carcinoma (intramuscular) in unknown mice

[1] = dose: 0.4 mg/kg/injection, schedule: Q01DX009 (ip), vehicle: water
[2] = dose: 5.0 mg/kg/injection, schedule: Q01DX001 (ip), vehicle: saline
[3] = dose: 8.4 mg/kg/injection, schedule: Q01DX001 (ip), vehicle: saline
[4] = dose: 14.0 mg/kg/injection, schedule: Q01DX001 (ip), vehicle: saline
[5] = dose: 10.0 mg/kg/injection, schedule: Q02DX009 (ip), vehicle: water
[6] = dose: 20.0 mg/kg/injection, schedule: Q02DX009 (ip), vehicle: water
[7] = dose: 80.0 mg/kg/injection, schedule: Q02DX009 (ip), vehicle: water
[8] = dose: 2.0 mg/kg/injection, schedule: Q01DX009 (ip), vehicle: other
[9] = dose: 4.0 mg/kg/injection, schedule: Q01DX009 (ip), vehicle: other
[10] = dose: 8.0 mg/kg/injection, schedule: Q01DX009 (ip), vehicle: other
[11] = dose: 16.0 mg/kg/injection, schedule: Q01DX009 (ip), vehicle: other

Measured: T/C

OC(CBr)C(O)C(O)C(O)CBr (stereo not given)
inactive: dose: 25.0 mg/kg/injection, schedule: Q01DX009 (ip), vehicle: Klucel (hydroxypropylcellulose) (HPC) 94 % of control | dose: 50.0 mg/kg/injection, schedule: Q01DX009 (ip), vehicle: Klucel (hydroxypropylcellulose) (HPC) 123 % of control | dose: 100.0 mg/kg/injection, schedule: Q01DX009 (ip), vehicle: Klucel (hydroxypropylcellulose) (HPC) 117 % of control

CO[C@H]1/C=C/O[C@@]2(C)Oc3c(C)c(O)c4c(O)c(c(/C=N/N5C(C)CN(Cc6ccccc6)CC5C)c(O)c4c3C2=O)NC(=O)/C(C)=C\C=C\[C@H](C)[C@H](O)[C@@H](C)[C@@H](O)[C@@H](C)[C@H](OC(C)=O)[C@@H]1C (stereo not given in full)
inactive: dose: 16.0 mg/kg/injection, schedule: Q03HX008 (ip), vehicle: saline 114 % of control | dose: 16.0 mg/kg/injection, schedule: Q03HX024 (ip), vehicle: saline 101 % of control | dose: 32.0 mg/kg/injection, schedule: Q03HX008 (ip), vehicle: saline 116 % of control | dose: 64.0 mg/kg/injection, schedule: Q01DX009 (ip), vehicle: saline 108 % of control | dose: 64.0 mg/kg/injection, schedule: Q03HX008 (ip), vehicle: saline 109 % of control | dose: 64.0 mg/kg/injection, schedule: Q04DX003 (ip), vehicle: saline 103 % of control | dose: 128.0 mg/kg/injection, schedule: Q01DX001 (ip), vehicle: saline 105 % of control | dose: 128.0 mg/kg/injection, schedule: Q04DX003 (ip), vehicle: saline 106 % of control | dose: 256.0 mg/kg/injection, schedule: Q01DX001 (ip), vehicle: saline 95 % of control

CN(C)c1nc(N(C)C)nc(N(C)C)n1
inactive: dose: 20.0 mg/kg/injection, schedule: Q01DX009 (ip), vehicle: other 89 % of control | dose: 40.0 mg/kg/injection, schedule: Q01DX009 (ip), vehicle: other 96 % of control

CO[C@@]12[C@H](COC(N)=O)C3=C(C(=O)C(C)=C(N)C3=O)N1C[C@@H]1N[C@@H]12
inactive: dose: 0.1 mg/kg/injection, schedule: Q01DX009 (ip), vehicle: saline 106 % of control | dose: 0.2 mg/kg/injection, schedule: Q01DX009 (ip), vehicle: saline 96 % of control | dose: 0.4 mg/kg/injection, schedule: Q01DX009 (ip), vehicle: saline 108 % of control | dose: 0.8 mg/kg/injection, schedule: Q01DX009 (ip), vehicle: saline 109 % of control

CN(C)/N=N/c1nc[nH]c1C(N)=O
inactive: dose: 200.0 mg/kg/injection, schedule: Q01DX009 (ip), vehicle: Klucel (hydroxypropylcellulose) (HPC) 121 % of control

CO[C@H](C(=O)[C@@H](O)[C@@H](C)O)[C@@H]1Cc2cc3cc(OC4CC(OC5CC(O)C(O)C(C)O5)C(O)C(C)O4)c(C)c(O)c3c(O)c2C(=O)[C@H]1OC1CC(OC2CC(OC3CC(C)(O)C(O)C(C)O3)C(O)C(C)O2)C(O)C(C)O1 (stereo not given in full)
inactive: dose: 0.05 mg/kg/injection, schedule: Q01DX009 (ip), vehicle: water 100 % of control | dose: 0.1 mg/kg/injection, schedule: Q01DX009 (ip), vehicle: water 100 % of control | dose: 0.2 mg/kg/injection, schedule: Q01DX009 (ip), vehicle: water 115 % of control | dose: 0.3 mg/kg/injection, schedule: Q01DX009 (ip), vehicle: water 86 % of control and 110 % of control | [1] 108 % of control and 115 % of control | dose: 0.5 mg/kg/injection, schedule: Q01DX009 (ip), vehicle: water 103 % of control

O=CC(NC(=O)N(CCCl)N=O)C(O)C(O)C(O)CO (stereo not given)
inactive: [2] 108 % of control | [3] 106 % of control | [4] 105 % of control | dose: 23.0 mg/kg/injection, schedule: Q01DX001 (ip), vehicle: saline 96 % of control

O=[N+]([O-])c1ccc([N+](=O)[O-])c(Cl)c1
inactive: [5] 122 % of control | [6] 122 % of control | dose: 40.0 mg/kg/injection, schedule: Q02DX009 (ip), vehicle: water 122 % of control | [7] 90 % of control

O=[N+]([O-])c1ccc(Cl)c([N+](=O)[O-])c1
inactive: dose: 10.0 mg/kg/injection, schedule: Q01DX009 (ip), vehicle: water 119 % of control | dose: 40.0 mg/kg/injection, schedule: Q01DX001 (ip), vehicle: water 116 % of control | dose: 40.0 mg/kg/injection, schedule: Q01DX009 (ip), vehicle: water 119 % of control | dose: 80.0 mg/kg/injection, schedule: Q01DX001 (ip), vehicle: water 100 % of control | dose: 80.0 mg/kg/injection, schedule: Q01DX009 (ip), vehicle: water 109 % of control | dose: 160.0 mg/kg/injection, schedule: Q01DX001 (ip), vehicle: water 109 % of control | dose: 160.0 mg/kg/injection, schedule: Q01DX009 (ip), vehicle: water 116 % of control | dose: 320.0 mg/kg/injection, schedule: Q01DX001 (ip), vehicle: water 119 % of control | dose: 640.0 mg/kg/injection, schedule: Q01DX001 (ip), vehicle: water 90 % of control

Nc1n[nH]c(N)n1
inactive: dose: 300.0 mg/kg/injection, schedule: Q01DX009 (ip), vehicle: water 118 % of control | dose: 500.0 mg/kg/injection, schedule: Q01DX009 (ip), vehicle: water 118 % of control | dose: 600.0 mg/kg/injection, schedule: Q01DX009 (ip), vehicle: water 100 % of control

CCN(CC)CCOc1ccc2c(c1)C(=O)c1cc(OCCN(CC)CC)ccc1-2
inactive: dose: 25.0 mg/kg/injection, schedule: Q04DX009 (ip), vehicle: Klucel (hydroxypropylcellulose) (HPC) 111 % of control | dose: 50.0 mg/kg/injection, schedule: Q04DX009 (ip), vehicle: Klucel (hydroxypropylcellulose) (HPC) 114 % of control | dose: 75.0 mg/kg/injection, schedule: Q04DX009 (ip), vehicle: Klucel (hydroxypropylcellulose) (HPC) 102 % of control

O=[N+]([O-])c1cccc([N+](=O)[O-])c1Cl
inactive: [5] 105 % of control | [6] 113 % of control | [7] 122 % of control | dose: 160.0 mg/kg/injection, schedule: Q02DX009 (ip), vehicle: water 112 % of control and 103 % of control

COc1cccc2c1C(=O)c1c(O)c3c(c(O)c1C2=O)C[C@@](O)(C(=O)CO)C[C@@H]3OC1CC(N)C(O)C(C)O1 (stereo not given in full)
inactive: dose: 0.25 mg/kg/injection, schedule: Q01DX005 (ip), vehicle: water 102 % of control | [1] 98 % of control | dose: 0.5 mg/kg/injection, schedule: Q01DX005 (ip), vehicle: water 119 % of control and 120 % of control | dose: 0.63 mg/kg/injection, schedule: Q04DX003 (ip), vehicle: water 104 % of control | dose: 0.8 mg/kg/injection, schedule: Q01DX009 (ip), vehicle: water 104 % of control | dose: 1.0 mg/kg/injection, schedule: Q01DX005 (ip), vehicle: water 120 % of control | dose: 1.2 mg/kg/injection, schedule: Q01DX009 (ip), vehicle: water 105 % of control | dose: 1.25 mg/kg/injection, schedule: Q04DX003 (ip), vehicle: water 96 % of control | dose: 1.6 mg/kg/injection, schedule: Q01DX009 (ip), vehicle: water 102 % of control | dose: 2.5 mg/kg/injection, schedule: Q01DX005 (ip), vehicle: water 36 % of control | dose: 2.5 mg/kg/injection, schedule: Q04DX003 (ip), vehicle: water 101 % of control

O=S(=O)(n1ccnc1)C(F)(F)F
inactive: [2] 98 % of control | [3] 88 % of control | [4] 92 % of control

COC1=C(OC)C(=O)C(C/C=C(\C)CC/C=C(\C)CC/C=C(\C)CC/C=C(\C)CC/C=C(\C)CC/C=C(\C)CC/C=C(\C)CC/C=C(\C)CC/C=C(\C)CCC=C(C)C)=C(C)C1=O
inactive: dose: 1.0 mg/kg/injection, schedule: Q01DX009 (ip), vehicle: other 95 % of control | [8] 97 % of control | [9] 94 % of control | [10] 94 % of control | [11] 102 % of control

Cc1c2ccncc2c(C)c2c1[nH]c1ccccc12
inactive: [8] 119 % of control | [9] 121 % of control | [10] 111 % of control | [11] 111 % of control
